Patent US20020183258A1, “Process of inhibiting cell death in injured cartilage” (The Scripps Research Institute, priority 2001, published 2002)
Entries after “also recorded” stand apart in the source; their conditions may differ. Where a SMILES comes first, the peptide text is derived from it. The star is where a group is joined. Cbz = O=C(OCc1ccccc1)*; CH2F = FC*

Key:
[1] = test system: bovine cartilage explants; assay: Load-induced chondrocyte apoptosis (TUNEL) in mechanically injured bovine cartilage explants; format: cell-based; details: for Mean (±SD) apoptosis rates, Loaded + Agent: bovine femoral condyle cartilage, loaded at 23 MPa, rate = percentage of TUNEL positive cells, n = 8 to 10
Source text: Macroscopically normal weight bearing portions of freshly slaughtered skeletally mature bovine femoral condyles were selected from animals between 2 and 6 years of age (Animal Technologies, Austin, Tex.). Only joints without visible signs of degeneration or aging were selected. Using sterile techniques, fall thickness cartilage was separated from underlying subchondral bone with a scalpel and 5 mm diameter cylindrical explants, ranging from 1 to 1.8 mm in height, cored out using a dermal punch (Acuderm, Inc., Ft. Lauderdale, Fla.). Explants taken from adjacent sites were used as matched controls for each group in each experiment to minimize variation in cartilage response due to differences in thickness and location within the joint. Each explant was weighed and allowed to stabilize at 37° C. and 5% CO2 for 48 hours in 1 ml of Dulbecco's modified Eagle's medium (DMEM) supplemented with 10% fetal bovine serum (FBS), L-glutamine, antibiotics and 50 μg/ml ascorbic acid.
Full thickness bovine cartilage explants, 5 mm in diameter, were subjected to a single static mechanical load of 7, 14 or 23 MPa for 500 msec. This model simulates traumatic cartilage injury and the loads were similar in magnitude to those generated during traumatic joint injury. Glycosaminoglycan (GAG) release and percent apoptotic cells were measured. The effect of a pan-caspase inhibitor, z-VAD.fmk [benzyloxycarbonyl-Val-Ala-Asp (OMe) fluoromethylketone] in preventing chondrocyte apoptosis was determined. z-VAD.fmk is a fluoromethylketone irreversible inhibitor of a broad spectrum of caspases. […] The percentage of apoptotic chondrocytes was related to load intensity and correlated with the level of GAG release from cartilage. […] This identifies a new approach to limit traumatic cartilage injury and the subsequent development of secondary osteoarthritis.
A model to simulate acute joint injury was used in this study based on injury models reported by Repo and Finlay, and Jeffrey et al. (Repo, et al. (1977) J. Bone Joint Surg. Am. 59A, 1068-1076, Jeffrey, et al. (1995) Arch. Biochem. Biophys. 322, 87-96). Although these reported models impacted cartilage using drop towers, a more controlled method was chosen for applying and maintaining stress or strain as follows. An Instron 8511 servohydraulic testing machine (Instron Corporation, Boston, Mass.) was used to mechanically load the cartilage explants. Explants were transported from the incubator to the Instron machine in sealed cell culture dishes. The explant was centralized on a stainless steel loading platform and a radially unconfined compressive load was applied through an impermeable stainless steel platen. A small preload (0.1 MPa) was applied for 2 minutes, followed by a single 500 msec trapezoidal loading waveform at the selected stress. The stress rose from 0.1 MPa to the chosen stress level in 100 msec and was maintained for 500 msec. Three stress levels were chosen to represent acute joint injury. 7 MPa has been reported to be the upper limit of physiologic stress developed during activities of daily living (von Eisenhart, et al. (1999) J. Orthop. Res. 17, 532-539). 23 MPa is the stress above which the underlying bone has been reported to fracture (Haut (1989) J. Orthop. Res. 7, 272-280). Control explants were placed in the loading apparatus but not loaded. Both control and loaded explants were re-cultured in fresh culture media immediately after loading. Stress and strain data were recorded during the test. […]

[2] = test system: human cartilage explants; assay: Load-induced chondrocyte apoptosis (TUNEL) in mechanically injured human cartilage explants; format: cell-based; details: for Mean (±SD) apoptosis rates, Loaded + Agent: human cartilage (femoral condyles and tibial plateaus), n = 8 to 10
Source text: Macroscopically normal tibial and femoral articular surfaces were selected from human cadaver donors between 18 and 45 years of age. Using sterile techniques, full thickness cartilage was separated from underlying subchondral bone with a scalpel. 5 mm diameter cylindrical explants, ranging from 2 to 2.8 mm in thickness, cored out using a dermal punch (Acuderm, Inc., Ft. Lauderdale, Fla.). Explants taken from adjacent sites were used as matched controls for each group in each experiment to minimize variation in cartilage response due to differences in thickness and location within the joint. Each explant was weighed and allowed to stabilize at 37° C. and 5% CO2 for 48 hours in Dulbecco's modified Eagle's medium (DMEM) supplemented with 5% fetal bovine serum (FBS), L-glutamine, antibiotics and […] ascorbic acid.
An Instron 8511 servohydraulic testing machine (Instron Corporation, Boston, Mass.) was used to mechanically load the cartilage explants. Explants were transported from the incubator to the Instron machine in sealed cell culture dishes. The total time duration of loading for a single experiment varied from approximately 1 to 2 hours depending on the number of samples. […] Stress and strain data were recorded during the test.
To determine whether caspase inhibitors could prevent apoptosis, explants were cultured in […] z-VAD.fmk (a broad spectrum caspase inhibitor) immediately after injury (30% strain level). Percentage apoptosis was measured at 96 hours post-injury in three groups (control, loaded, and loaded with z-VAD.fmk) with ten explants each in two separate experiments.
Explants loaded as described above were fixed in 10% buffered formalin. […] This was detected by immunohistochemical staining with M30 (Cytodeath, Boehringer Mannheim, Eugene, Oreg.), a monoclonal antibody that recognizes the neo-epitope exposed in early apoptosis.
In an additional study the apoptosis response of human articular cartilage to mechanical stress was examined. […] GAG release and percentage of cells undergoing apoptosis were measured at 96 hours after injury. […]

[3] = test system: bovine cartilage explants; assay: Glycosaminoglycan (GAG) release assay (dimethylene blue) in injured bovine cartilage explants; format: cell-based; details: loaded, z-VAD.fmk 100 μM, 48 hours
Description: Glycosaminoglycan release assay. To estimate GAG depletion and release, the concentration of sulfated glycosaminoglycans was measured using 1,9-Dimethylene Blue (DMMB) as a monitor of spectrophotometric changes which occur during the formation of the sulfated GAG dye complex (Fardale, et al. (1986) Biochim. Biophys. Acts. 883, 173-177, Goldberg, et al. (1993) Agents Actions 39 Spec No, C163-C165). For GAG content measurement, samples were digested in papain and collagenase and the concentration of sulfated GAG measured using DMMB. To generate a standard curve, chondroitin-6-sulfate (Sigma, St. Louis, Mo.) was used at concentrations between 1 and 200 μg/ml. GAG released in media was normalized to the pooled mean GAG content of Control (uninjured) cartilage explants and expressed as a percentage of total GAG content.
To determine whether apoptosis could be prevented by caspase inhibition, 12 explants were loaded at 23 MPa (High Load) and cultured for 48 hours. […] Six more explants were used as non-loaded controls. Percent apoptosis and GAG release in media was measured as described above.
Release of sulfated glycosaminoglycans (GAG) was analyzed as a measure of the extent of damage sustained by the explant. […] GAG depletion was assessed by dimethylene blue binding assays of the culture supernatants and this correlated with the reduced of safranin O staining of the cartilage sections.

[4] = test system: rabbits with ligament transection; assay: Intraarticular injection of caspase inhibitor in rabbits with anterior cruciate ligament transection (ACLT); format: in vivo, New Zealand White rabbits
Description: A pilot study was performed to assess feasibility and efficacy of caspase inhibition in vivo. Eight New Zealand White rabbits were divided into anterior cruciate ligament transection (ACLT) and ACLT+caspase inhibitor (CI) groups. Both groups underwent bilateral ACLT. The ACLT+CI group was treated with intra-articular injections of 25 μg of z-VAD.fmk three times per week for six weeks while the control group received saline injections. Rabbits were euthanised at six weeks and femoral and tibial articular cartilage evaluated by India ink staining and histologic Mankin grading after Safranin-O stain.
Histologically, more knees from the ACLT group had higher Mankin scores. 87% (⅞) ACLT knees had grades 5 or higher, while 50% ( 4/8) ACLT+CI knees were graded 5 or higher. The India ink stained femoral condyles were photographed and digital images were used to quantify the surface areas of the lesions.

C[C@@H]1C[C@H]2[C@@H]3CCC4=CC(=O)C=C[C@]4(C)[C@@]3(F)[C@@H](O)C[C@]2(C)[C@@]1(O)C(=O)CO [Dexameth.]
Mean (±SD) apoptosis rates, Loaded + Agent [1]: 47 (±11.2)

COC(=O)CC(NC(=O)C(C)NC(=O)C(NC(=O)OCc1ccccc1)C(C)C)C(=O)CF (stereo not drawn) [z-VAD.fmk, benzyloxycarbonyl-Val-Ala-Asp (OMe) fluoromethylketone] (Cbz-Val-Ala-Asp(OMe)-CH2F; configuration not given here)
reduction in the apoptosis rate ([1]; bovine explants, high and intermediate load groups, vs loaded without agent): > 50% | effect on chondrocyte apoptosis after mechanical injury ([1]; bovine explants, single static load, 500 msec): reduced chondrocyte apoptosis after mechanical injury | Mean (±SD) apoptosis rates, Loaded + Agent [1]: 31 (±13.9) | Mean (±SD) apoptosis rates, Loaded + Agent ([2]; loaded at 23 MPa (footnote *)): 34 (±10.2)* | reduction in apoptosis rates ([2]; human explants, 30% strain, cultured in 100 mM z-VAD.fmk after injury, 96 hours post-injury, p<0.05): 50% | effect on GAG release / GAG depletion after mechanical injury [3]: reduction in GAG release; also recorded: normalization of the GAG depletion | reduction of the size (surface area) of the cartilage lesions ([4]; rabbit ACLT, India ink stained femoral condyles, digital images, six weeks, 25 μg intra-articular three times per week): ~80% | India ink grade of cartilage lesions ([4]; rabbit ACLT, six weeks, 25 μg intra-articular three times per week (ACLT saline: grade III to IVa)): ranged from II (minimum fibrillation), with only one rabbit (two knees) having a Grade III to IVa lesion | area of cartilage lesions under India ink examination ([4]; rabbit ACLT, six weeks, vs ACLT saline group): lesions that were smaller in area | knees with histologic Mankin grades 5 or higher ([4]; rabbit bilateral ACLT, 25 μg intra-articular three times per week for six weeks, 4/8 knees (ACLT saline 87%)): 50%

IGF-1: agent tested for pharmacologic modulation of apoptosis after cartilage injury in vitro
Mean (±SD) apoptosis rates, Loaded + Agent [1]: 42 (±10.9) | Mean (±SD) apoptosis rates, Loaded + Agent ([2]; loaded at 30% strain): 10 (±6.2)
